Test results published in patent US11660293B2, “Substituted 2-azabicyclo[3.1.1]heptane and 2-azabicyclo[3.2.1]octane derivatives as orexin receptor antagonists” (Chronos Therapeutics Limited, priority 2017, dated 2023).
pKi: −log10 of the molar value.

Columns and labels:
[1] = biological target: T1, human Orexin type 1 receptors (Homo sapiens (Human), UniProt O43613); experiment: Intracellular calcium measurement (FLIPR), antagonism of Orexin-A at EC80 in CHO-hOX1 cells
[2] = biological target: T2, human Orexin type 2 receptors (Homo sapiens (Human), UniProt O43614); experiment: Intracellular calcium measurement (FLIPR), antagonism of Orexin-A at EC80 in CHO-hOX2 cells
T2 sequence (O43614 whole entry): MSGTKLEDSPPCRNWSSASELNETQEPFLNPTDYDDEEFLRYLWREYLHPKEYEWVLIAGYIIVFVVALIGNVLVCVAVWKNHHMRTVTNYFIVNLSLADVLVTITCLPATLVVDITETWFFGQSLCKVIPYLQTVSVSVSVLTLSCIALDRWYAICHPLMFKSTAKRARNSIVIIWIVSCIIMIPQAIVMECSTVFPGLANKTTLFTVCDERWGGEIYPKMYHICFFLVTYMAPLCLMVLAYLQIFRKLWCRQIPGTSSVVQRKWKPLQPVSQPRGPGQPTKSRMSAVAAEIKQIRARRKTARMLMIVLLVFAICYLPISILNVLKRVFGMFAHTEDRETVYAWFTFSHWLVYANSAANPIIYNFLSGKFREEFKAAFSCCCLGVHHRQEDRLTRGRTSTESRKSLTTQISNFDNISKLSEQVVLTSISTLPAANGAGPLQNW

[3] = biological target: T2, human Orexin type 2 receptors; experiment: Scintillation Proximity Assay (SPA) binding assay, [3H]EMPA displacement, HEK-hOX2 membranes; conditions: Table 2, [3H]EMPA 2 nM
[4] = biological target: T1, human Orexin type 1 receptors; experiment: Scintillation Proximity Assay (SPA) binding assay, [3H]SB-674042 displacement, CHO-hOX1 membranes; conditions: Table 2, [3H]SB-674042 2 nM

T1 sequence (O43613 whole entry): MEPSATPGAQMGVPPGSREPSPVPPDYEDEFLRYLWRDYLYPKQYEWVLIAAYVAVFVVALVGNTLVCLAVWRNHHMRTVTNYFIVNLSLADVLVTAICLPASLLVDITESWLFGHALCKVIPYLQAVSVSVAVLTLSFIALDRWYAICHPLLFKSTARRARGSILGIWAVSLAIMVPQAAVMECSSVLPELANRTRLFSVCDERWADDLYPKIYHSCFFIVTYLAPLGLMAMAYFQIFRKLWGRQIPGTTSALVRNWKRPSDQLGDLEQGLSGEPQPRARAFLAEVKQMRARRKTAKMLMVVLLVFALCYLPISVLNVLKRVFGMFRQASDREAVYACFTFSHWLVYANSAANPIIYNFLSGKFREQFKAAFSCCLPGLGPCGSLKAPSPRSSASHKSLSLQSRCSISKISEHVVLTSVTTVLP

pKi [1] | pKi [2] | Structure (SMILES) | OX2 pKi (SPA binding) [3] | OX1 pKi (SPA binding) [4]
8.50 | 6.55 | Cc1nc(C(=O)N2C3CC(C3)C(C)C2COc2ccc(F)cc2)c(-c2ccccc2)s1 (mixture of isomers) [Example 64, CIS/TRANS 3-(4-fluorophenoxymethyl)-4-methyl-2-(2-methyl-5-phenyl-1,3-thiazole-4-carbonyl)-2-azabicyclo[3.1.1]heptane] | – | –
7.89 | 6.53 | Cc1ccc(-c2ncccn2)c(C(=O)N2C3CC(C3)C(C)C2COc2ccc(F)cc2)c1 (mixture of isomers) [Example 69, CIS/TRANS 3-(4-fluorophenoxymethyl)-4-methyl-2-[5-methyl-2-(pyrimidin-2-yl)benzoyl]-2-azabicyclo[3.1.1]heptane] | – | –
7.66 | < 6.00 | Cc1nc(C(=O)N2C3CC(C3)C(C)C2COc2ccc(F)cn2)c(-c2ccccc2)s1 (mixture of isomers) [Example 77, CIS/TRANS 3-{[(5-fluoropyridin-2-yl)oxy]methyl}-4-methyl-2-(2-methyl-5-phenyl-1,3-thiazole-4-carbonyl)-2-azabicyclo[3.1.1]heptane] | – | –
7.45 | 6.63 | Cc1ccc(-c2ncccn2)c(C(=O)N2C3CC(C3)C(C)C2COc2ccc(F)cn2)n1 (mixture of isomers) [Example 78, CIS/TRANS 3-{[(5-fluoropyridin-2-yl)oxy]methyl}-4-methyl-2-[6-methyl-3-(pyrimidin-2-yl)pyridine-2-carbonyl]-2-azabicyclo[3.1.1]heptane] | – | –
8.46 | 7.33 | Cc1nc(C(=O)N2C3CC(C3)C(C)C2COc2nccc3ccccc23)c(-c2ccccc2)s1 (mixture of isomers) [Example 83] | – | –
7.12 | 5.73 | Cc1nc(C(=O)N2C3CC(C3)C(C)C2COc2cnc3ccc(Cl)cc3n2)c(-c2ccccc2)s1 (mixture of isomers) [Example 84, CIS/TRANS 7-chloro-2-{[4-methyl-2-(2-methyl-5-phenyl-1,3-thiazole-4-carbonyl)-2-azabicyclo[3.1.1]heptan-3-yl]methoxy}quinoxaline] | – | –
8.20 | 5.98 | Cc1nc(C(=O)N2C3CC(C3)C(C)C2COc2cc3ccccc3cn2)c(-c2ccccc2)s1 (mixture of isomers) [Example 85, CIS/TRANS 3-{[4-methyl-2-(2-methyl-5-phenyl-1,3-thiazole-4-carbonyl)-2-azabicyclo[3.1.1]heptan-3-yl]methoxy}isoquinoline] | – | –
8.24 | 6.79 | Cc1ccc(-c2nccs2)c(C(=O)N2C(COc3ccc(F)cc3)CC3CC2C3)n1 (racemic) [Example 4] | – | –
8.15 | 6.85 | Cc1ccc(-c2nccs2)c(C(=O)N2C(COc3ccc(F)cc3)CC3CC2C3)c1 (racemic) [Example 7] | – | –
7.83 | 6.46 | Cc1ccc(-n2nccn2)c(C(=O)N2C(COc3ccc(F)cc3)CC3CC2C3)c1 (racemic) [Example 10] | – | –
8.11 | 6.77 | Cc1ccc(-c2ncccn2)c(C(=O)N2C(COc3ccc(F)cc3)CC3CC2C3)n1 (racemic) [Example 13] | – | –
7.54 | 6.27 | Cc1ccc(-c2ncccn2)c(C(=O)N2C(COc3ccc(F)cc3)CC3CC2C3)c1 (racemic) [Example 16] | – | –
7.52 | 6.68 | Cc1ccc(-c2nccs2)c(C(=O)N2C(COc3ccc(F)cn3)CC3CC2C3)c1 (racemic) [Example 25] | – | –
7.64 | – | Cc1ccc(-c2nccs2)c(C(=O)N2C(COc3ccc(Cl)cc3)CC3CC2C3)c1 (stereo not drawn) [Example 20] | – | –
– | – | C[C@@H]1C2CC(C2)N(C(=O)c2cc(F)ccc2-n2nccn2)C1CNc1cnc(C2CC2)cn1 (stereo partly drawn) [Example 258] | 5.35 | 7.07
– | – | C[C@@H]1C2CC(C2)N(C(=O)c2cc(Cl)ccc2-n2nccn2)C1CNc1ncc(C2CC2)cn1 (stereo partly drawn) [Example 259] | 5.32 | 7.66
– | – | C[C@@H]1C2CC(C2)N(C(=O)c2cc(F)ccc2-n2nccn2)C1CNc1ncc(C2CC2)cn1 (stereo partly drawn) [Example 260] | 4.89 | 7.45
